From ChEMBL document CHEMBL1201862, “PubChem BioAssay data set” (2004)
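48-hour exposure; five concentrations; linearly interpolated endpoints. GI50 = concentration required for 50% inhibition of growth.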 The source made the active and inactive calls. No stated cut-off is given here; in the data, active = GI50 up to about 1.1 µM and inactive = higher.

Assays:
Assay in all cases: NCI-60 cell line screen, 48 h
[1] = tested on: RPMI-8226
[2] = tested on: HT-29
[3] = tested on: SNB-75
[4] = tested on: OVCAR-8
[5] = tested on: SK-MEL-28
[6] = tested on: COLO 205
[7] = tested on: SF-539
[8] = tested on: SK-MEL-5
[9] = tested on: IGROV-1
[10] = tested on: SR
[11] = tested on: SK-MEL-2
[12] = tested on: KM12
[13] = tested on: SF-268
[14] = tested on: NCI-H23
[15] = tested on: TK-10
[16] = tested on: LOX IMVI
[17] = tested on: MDA-MB-231
[18] = tested on: A498

Measured: GI50

Cc1ccccc1N(CCC#N)C1=NN(C(=O)CC(=O)Nc2ccccc2)C(c2ccccc2)C1 (configuration not stated)
inactive: [1] > 100 µM | [2] > 100 µM | [3] 35 µM | [4] > 100 µM | [5] > 100 µM | [6] > 100 µM | [7] > 100 µM | [8] > 100 µM | [9] > 100 µM | [10] 44.1 µM | [11] > 100 µM | [12] > 100 µM | [13] > 100 µM | [14] > 100 µM

Cc1cc2c(C)nn(Cc3ccccc3Cl)c2c(C#N)c1C
inactive: [1] > 100 µM | [2] > 100 µM | [3] > 100 µM | [4] > 100 µM | [5] > 100 µM | [6] > 100 µM | [15] > 100 µM | [7] > 100 µM | [9] > 100 µM | [10] > 100 µM | [11] > 100 µM | [16] > 100 µM | [13] > 100 µM | [14] > 100 µM

COc1cc(CNc2nc3cc(C(F)(F)F)ccc3nc2C)cc(OC)c1OC
inactive: [1] 11.7 µM | [2] 17.2 µM | [3] 19.4 µM | [17] 14.5 µM | [4] 23.7 µM | [5] 20.4 µM | [6] 12.8 µM | [15] 15.7 µM | [7] 21.6 µM | [8] 19.7 µM | [9] 14.7 µM | [10] 14.5 µM | [12] 15.9 µM | [16] 13.9 µM | [13] 25.6 µM | [14] 18.9 µM

CCCCN(CCCC)C(=O)C(=O)C(C)C(=O)CC (configuration not stated)
inactive: [1] > 100 µM | [2] > 100 µM | [3] > 100 µM | [4] > 100 µM | [5] > 100 µM | [6] > 100 µM | [15] > 100 µM | [7] > 100 µM | [9] > 100 µM | [11] > 100 µM | [12] > 100 µM | [16] > 100 µM | [13] > 100 µM | [14] > 100 µM

O=[N+]([O-])c1cccnc1NCC1(CO)CCCC1
inactive: [1] 20.2 µM | [2] 19.3 µM | [3] 15.9 µM | [4] 19.4 µM | [5] 23.2 µM | [15] 27.2 µM | [7] 21.6 µM | [8] 17.1 µM | [9] 18.3 µM | [18] 39.6 µM | [10] 25.4 µM | [16] 16.7 µM | [13] 32.2 µM | [14] 32.6 µM
